In US20060247303A1, “7H-dibenzo[b,g][1,5]dioxocin-5-one derivatives and use thereof” (BAYER HEALTHCARE AG, priority 2002, published 2006) one finds IC50 and inhibition data, which are given here for twelve compounds.

One experiment concerns the target T1, CETP (Homo sapiens, UniProt P11597).
T1 construct: enriched CETP fraction, obtained from human plasma by means of hydrophobic chromatography; from tissue; host or cells: human plasma
T1 sequence (P11597 18-493): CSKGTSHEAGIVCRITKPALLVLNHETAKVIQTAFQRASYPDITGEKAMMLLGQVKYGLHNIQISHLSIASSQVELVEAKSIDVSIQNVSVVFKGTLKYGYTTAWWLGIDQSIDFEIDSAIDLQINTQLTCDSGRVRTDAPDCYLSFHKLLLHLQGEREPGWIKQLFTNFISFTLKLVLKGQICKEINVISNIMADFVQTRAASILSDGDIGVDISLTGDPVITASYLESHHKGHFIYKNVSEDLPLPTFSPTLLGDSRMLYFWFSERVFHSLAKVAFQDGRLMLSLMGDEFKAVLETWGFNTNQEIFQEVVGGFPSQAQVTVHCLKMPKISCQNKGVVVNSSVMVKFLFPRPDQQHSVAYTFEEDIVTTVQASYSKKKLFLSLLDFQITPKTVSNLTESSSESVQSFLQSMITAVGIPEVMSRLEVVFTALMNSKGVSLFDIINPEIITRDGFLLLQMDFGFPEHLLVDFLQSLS
As to the kind of experiment: CETP fluorescence test. The settings on record: CETP from human plasma, transfer of fluorescent cholesterol ester between liposomes, 37° C., 4 hours; read-out: IC50 [nM] Fluor. test. The format is biochemical. How it is done: CETP is obtained in partially purified form from human plasma by differential centrifugation and column chromatography and used for the test. To this end, human plasma is adjusted to a density of 1.21 g per ml using NaBr and centrifuged at 4° C. at 50 000 rpm for 18 h. The bottom fraction (d>1.21 g/ml) is applied to a Sephadex® Phenyl-Sepharose 4B (Pharmacia) column, washed with 0.15 M NaCl/0.001 M tris HCl pH 7.4 and then eluted with distilled water. The CETP-active fractions are pooled, dialysed against 50 mM sodium acetate pH 4.5 and applied to a CM-Sepharose® column (Pharmacia). The mixture is then eluted using a linear gradient (0-1 M NaCl). The pooled CETP fractions are dialysed against 10 mM Tris HCl pH 7.4 and then further purified by chromatography on a Mono Q® column (Pharmacia).
Measurement of the CETP-catalysed transfer of a fluorescent cholesterol ester between liposomes—modified according to the procedure of Bisgaier et al., J. Lipid Res. 34, 1625 (1993):
For the production of the donor liposomes, 1 mg of cholesteryl 4,4-difluoro-5,7-dimethyl-4-bora-3a,4a-diaza-s-indacene-3-dodecanoate (cholesteryl BODIPY® FL C12, Molecular Probes) is dissolved in 600 μl of dioxane with 5.35 mg of triolein and 6.67 mg of phosphatidylcholine with gentle warming in an ultrasonic bath and this solution is added very slowly with ultrasonication to 63 ml of 50 mM tris/HCl, 150 mM NaCl, 2 mM EDTA buffer pH 7.3 at RT.
The suspension is then ultrasonicated under an N2 atmosphere for 30 minutes in the Braukson ultrasonic bath at about 50 watts, the temperature being kept at about 20° C.
The acceptor liposomes are obtained analogously from 86 mg of cholesteryl oleate, 20 mg of triolein and 100 mg of phosphatidylcholine dissolved in 1.2 ml of dioxane and 114 ml of above buffer by ultrasonication at 50 watts (20° C.) for 30 minutes.
For testing, a test mix consisting of 1 part of above buffer, 1 part of donor liposomes and 2 parts of acceptor liposomes is used.
80 μl of test mix are treated with 1-3 μg of enriched CETP fraction, obtained from human plasma by means of hydrophobic chromatography, and 2 μl of the substance to be investigated in DMSO and incubated at 37° C. for 4 hours.
The change in the fluorescence at 485/535 nm is a measure of the CE transfer; the inhibition of the transfer in comparison to the control batch without substance is determined.

The target of experiment [1] is T2, CETP activity in the serum (Homo sapiens, UniProt P11597).
T2 construct: from tissue; host or cells: serum of transgenic hCETP mice
T2 sequence (P11597 18-493): T1 sequence (P11597 18-493)
The experiment can be described thus: Measurement of the ex vivo activities on transgenic hCETP mice. The settings on record: mouse, serum cholesteryl ester transport; for inhibition at 30 mg/kg: 30 mg/kg oral; for inhibition at 100 mg/kg: 100 mg/kg oral. The format is in vivo. How it is done: To test for CETP-inhibitory activity, the substances are administered orally using a stomach tube to transgenic hCETP mice bred in-house (Dinchuk et al. BBA (1995) 1295-301). To this end, male animals are randomly assigned to groups having an equal number of animals, as a rule n=3, one day before the start of the experiment. Before administration of the substance, blood is taken from each mouse by puncture of the retro-orbital venous plexus for the determination of its basal CETP activity in the serum (T1). The test substance is then administered to the animals using the stomach tube. At specific times after administration of the test substance, blood is taken from the animals by puncture a second time (T2), as a rule 0.5, or 1 and 2 h after substance administration, but if appropriate this can also be carried out at another time.
In order to be able to assess the inhibitory activity of a substance, for each time, i.e. 0.5 or 1 or 2 h, a corresponding control group is employed whose animals only receive the formulating agent without substance. In the control animals, the second blood sampling per animal is carried out as in the substance-treated animals in order to be able to determine the change in the CETP activity without inhibitor over the corresponding experimental time interval (0.5, 1 or 2 h).
After termination of the clotting, the blood samples are centrifuged and the serum is removed by pipette.
For the determination of the CETP activity, the cholesteryl ester transport over 4 h is determined. To this end, as a rule 2 μl of serum are employed in the test batch and the test is carried out as described under “CETP fluorescence test”.
The differences in the cholesteryl ester transport [pM CE*/h (T2)−pM CE*/h (T1)] are calculated for each animal and averaged in the groups. A substance which at one of the times reduces the cholesteryl ester transport by >30% is regarded as active.

The mark [2] stands for this setting: 0.5 h after administration, read-out: % inhibition at 30 mg/kg 0.5 h.
[3] abbreviates: 1 h after administration, read-out: % inhibition at 30 mg/kg 1 h.
The mark [4] stands for this setting: 2 h after administration, read-out: % inhibition at 30 mg/kg 2 h.
Setting [5] is: 3 h after administration, read-out: % inhibition at 30 mg/kg 3 h.
[6] abbreviates: 6 h after administration, read-out: % inhibition at 30 mg/kg 6 h.
[7] abbreviates: 0.5 h after administration, read-out: % inhibition at 100 mg/kg 0.5 h.
The mark [8] stands for this setting: 1 h after administration, read-out: % inhibition at 100 mg/kg 1 h.
The mark [9] stands for this setting: 2 h after administration, read-out: % inhibition at 100 mg/kg 2 h.

Where two headings read alike, the source gives them in different places.

Regarding `COc1c([C@@H](O)CC(C)C)ccc2c1C(=O)OCc1c(Cl)c(C)c(Cl)c(OC(=O)C3(C)CC4CCC3C4)c1O2` (stereo partly shown) [Example B-81], the IC50 on CETP worked out at 60 nM. The inhibition at 30 mg/kg in experiment [1] (setting [2]) stood at 54%; in experiment [1] (setting [3]), 59%; in experiment [1] (setting [4]), 55%.
On to `COc1c([C@@H](O)CC(C)C)ccc2c1C(=O)OCc1c(Cl)c(C)c(Br)c(OC(=O)[C@]3(C)CC4C=CC3C4)c1O2` (stereo partly shown) [Example C-31], for which the figures for the inhibition at 30 mg/kg in experiment [1] (setting [2]), in experiment [1] (setting [3]) and in experiment [1] (setting [4]) were 83%, 76% and 64%, respectively.
As for `COc1c([C@@H](O)CC(C)C)ccc2c1C(=O)OCc1c(C)c(C)c(C)c(OC(=O)C3(C)CC4CCC3C4)c1O2` (stereo partly shown) [Example B-70], the 50% inhibitory concentration (IC50) at CETP is 150 nM. In addition, the inhibition at 30 mg/kg was determined as 48% in experiment [1] (setting [2]), 30% in experiment [1] (setting [3]) and 44% in experiment [1] (setting [4]).
On the same counts, the results for `COc1c([C@@H](O)CC(C)C)ccc2c1C(=O)OCc1c(Br)c(C)c(Br)c(OC(=O)C3(C)CC4CCC3C4)c1O2` (stereo partly shown) [Example B-69] are 100 nM, 52%, 55% and 27%.
`COc1c([C@@H](O)CC(C)C)ccc2c1C(=O)OCc1cc(C)c(C3CC3)c(OC(=O)C3(C)C4CCC3CC4)c1O2` (stereo partly shown) [Example C-59]: the inhibition at 30 mg/kg in experiment [1] (setting [3]) is 52%; in experiment [1] (setting [5]), 32%; in experiment [1] (setting [6]) it was 26%.
With `COc1c([C@@H](O)CC(C)C)ccc2c1C(=O)OCc1cc(C)cc(OC(=O)N3C4CCC3CC4)c1O2` [Example B-147], on CETP, the IC50 was 200 nM. Besides, the inhibition at 100 mg/kg stood at 76% in experiment [1] (setting [7]), 54% in experiment [1] (setting [8]) and 33% in experiment [1] (setting [9]).
For `COCc1c(C)c(Cl)c2c(c1OC(=O)C1(C)C3CCC1CC3)Oc1ccc(C(O)CC(C)(C)C)c(OC)c1C(=O)OC2` (stereo not shown) [Example C-71], the IC50 on CETP stood at 40 nM. Also, the inhibition at 30 mg/kg in experiment [1] (setting [3]) is 60%; in experiment [1] (setting [5]), 29%; in experiment [1] (setting [6]), 7%.
Consider `COc1c([C@@H](O)CC(C)C)ccc2c1C(=O)OCc1c(Cl)c(C)c(C3CC3)c(OC(=O)C3(C)C4CCC3CC4)c1O2` (stereo partly shown) [Example C-56], for which the IC50 on CETP stood at 57 nM. The inhibition at 30 mg/kg in experiment [1] (setting [3]) stood at 66%; in experiment [1] (setting [5]) it was 53%; in experiment [1] (setting [6]) it was 14%.
For `COc1c([C@@H](O)CC(C)C)ccc2c1C(=O)OCc1c(Cl)c(C)c(Cl)c(OC(=O)C3(C)CCCCC3)c1O2` [Example B-84], at CETP, the 50% inhibitory concentration (IC50) amounted to 100 nM. Besides, the results for the inhibition at 30 mg/kg in experiment [1] (setting [2]), in experiment [1] (setting [3]) and in experiment [1] (setting [4]) were 31%, 28% and 35%, respectively.
For `COc1c([C@@H](O)CC(C)C)ccc2c1C(=O)OCc1cc(C)cc(OC(=O)CC(C)(C)C)c1O2` [Example A-23], the IC50 at CETP stood at 250 nM. The inhibition at 100 mg/kg came out at 59% in experiment [1] (setting [7]), 52% in experiment [1] (setting [8]) and 31% in experiment [1] (setting [9]).
Regarding `CCc1c(C)c(Cl)c2c(c1OC(=O)C1(C)C3CCC1CC3)Oc1ccc([C@@H](O)CC(C)C)c(OC)c1C(=O)OC2` (stereo partly shown) [Example C-118], on CETP, the half-maximal inhibitory concentration (IC50) is 58 nM. For the same compound, the inhibition at 30 mg/kg in experiment [1] (setting [3]) stood at 75%; in experiment [1] (setting [5]), 50%; in experiment [1] (setting [6]) it was 20%.
As for `COc1c([C@@H](O)CC(C)C)ccc2c1C(=O)OCc1c(Cl)c(C)c(Br)c(OC(=O)C3(C)CC4CCC3C4)c1O2` (stereo partly shown) [Example B-45], the 50% inhibitory concentration (IC50) at CETP amounted to 70 nM. Moreover, the inhibition at 30 mg/kg in experiment [1] (setting [2]) is 70%; in experiment [1] (setting [3]) it was 71%; in experiment [1] (setting [4]) it was 63%.

Usually IC50 stands for the concentration needed to halve the response being measured.
